Assay results as given in BindingDB's records for doi:10.1021/cb400452z (2013).

How the values were obtained:
[1] = target: T1, 3-phosphoinositide-dependent protein kinase 1 (Homo sapiens, UniProt O15530); experiment: AlphaScreen Assay; conditions: pH 7.4; room temperature
T1 sequence (O15530 whole entry): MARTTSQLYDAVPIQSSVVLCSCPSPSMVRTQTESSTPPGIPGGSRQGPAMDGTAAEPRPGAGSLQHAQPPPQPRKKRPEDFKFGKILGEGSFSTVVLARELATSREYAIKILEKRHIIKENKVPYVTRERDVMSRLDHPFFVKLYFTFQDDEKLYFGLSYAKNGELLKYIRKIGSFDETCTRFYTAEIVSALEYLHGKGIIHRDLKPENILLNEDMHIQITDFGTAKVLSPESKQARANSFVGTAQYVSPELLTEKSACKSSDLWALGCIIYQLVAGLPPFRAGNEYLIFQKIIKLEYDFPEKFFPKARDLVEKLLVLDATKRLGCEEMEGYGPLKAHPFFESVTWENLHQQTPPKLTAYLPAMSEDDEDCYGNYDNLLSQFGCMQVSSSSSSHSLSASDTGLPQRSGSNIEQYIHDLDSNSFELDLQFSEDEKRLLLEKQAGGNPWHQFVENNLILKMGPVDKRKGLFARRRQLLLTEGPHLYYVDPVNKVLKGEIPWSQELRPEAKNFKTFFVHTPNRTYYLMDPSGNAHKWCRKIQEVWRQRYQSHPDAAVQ
Method: (§1) The AlphaScreen Assay (Perkin Elmer) was performed according to the manufacturer's protocol in 384-well microtiter plates. Incubations were performed in white 384-well microtiter plates containing 20uL of a reaction mix (50mM Tris-HCl pH 7.4, 100mM NaCl, 1mM dithiotreitol, 0.01% (v/v) Tween-20, 0.1% (w/v) BSA, 1mM DMSO, 100nM His-CaPkh2 or 100nM His-PDK1, 50nM Biotin-PIFtide, and the indicated concentrations of unlabeled PIF-tide or small compounds) and 5uL of beads. 5uL of beads solution containing nickel chelate-coated acceptor beads and streptavidin-coated donor beads (20ug/mL final concentrations) was added to the reaction mix. The reaction mix and the beads were incubated in the dark for 45 min at RT and the emission of light from the acceptor beads was measured in the EnVision reader (Perkin Elmer) and analyzed using the GraphPad Prism software.

[2] = target: T2, Serine/threonine-protein kinase PKH2 [1-944] (Candida albicans (strain SC5314 / ATCC MYA-2876), UniProt Q5A3P6); experiment: AlphaScreen Assay; conditions: pH 7.4
T2 construct: 1-944
T2 sequence (Q5A3P6 whole entry): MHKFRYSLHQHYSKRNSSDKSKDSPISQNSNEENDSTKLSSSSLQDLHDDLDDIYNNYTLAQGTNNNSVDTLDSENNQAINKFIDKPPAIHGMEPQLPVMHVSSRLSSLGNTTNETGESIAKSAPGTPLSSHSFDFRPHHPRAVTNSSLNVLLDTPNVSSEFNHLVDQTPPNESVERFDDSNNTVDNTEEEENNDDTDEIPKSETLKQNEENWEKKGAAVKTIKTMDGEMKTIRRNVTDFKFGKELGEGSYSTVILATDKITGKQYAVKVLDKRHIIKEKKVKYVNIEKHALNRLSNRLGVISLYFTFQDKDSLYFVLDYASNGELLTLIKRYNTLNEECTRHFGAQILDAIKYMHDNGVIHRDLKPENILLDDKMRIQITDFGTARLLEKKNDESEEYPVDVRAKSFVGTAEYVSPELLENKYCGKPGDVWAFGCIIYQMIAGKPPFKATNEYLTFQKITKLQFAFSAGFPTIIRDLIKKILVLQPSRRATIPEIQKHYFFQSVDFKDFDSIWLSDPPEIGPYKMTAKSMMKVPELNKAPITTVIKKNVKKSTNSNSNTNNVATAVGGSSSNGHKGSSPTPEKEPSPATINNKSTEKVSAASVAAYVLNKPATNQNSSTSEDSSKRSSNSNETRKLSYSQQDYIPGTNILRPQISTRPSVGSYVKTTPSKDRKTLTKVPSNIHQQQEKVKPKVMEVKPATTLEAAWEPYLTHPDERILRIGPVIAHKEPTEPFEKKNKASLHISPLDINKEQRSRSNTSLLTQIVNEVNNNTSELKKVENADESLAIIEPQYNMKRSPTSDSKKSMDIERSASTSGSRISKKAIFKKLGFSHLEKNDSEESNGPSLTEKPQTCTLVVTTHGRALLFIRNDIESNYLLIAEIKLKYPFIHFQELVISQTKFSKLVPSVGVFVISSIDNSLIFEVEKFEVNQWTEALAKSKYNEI
Method: as §1

[3] = target: T1, 3-phosphoinositide-dependent protein kinase 1; experiment: Protein Kinase Activity Assay; conditions: pH 7.4; 0 °C
Method: (§2) A 20ul mix containing 50mM Tris pH 7.5, 0.05mg/ml BSA, 0.1% β-mercaptoethanol, 10mM MgCl2, 100μM [γ-P32]ATP (5-50cpm/pmol), 0.003% Brij, 150-500ng PDK1 or CaPkh2, and T308tide (from 0.1 to 1mM) was pre-incubated at room temperature (22¿C) for 15 minutes. The kinase reaction was initiated by the addition of the ATP-Mg mixture, followed by the addition of 5μl phosphoric acid (final concentration 0.01%) to stop the reaction. The PDK1 activity assay was performed in a 96 well format and 4μl aliquots spotted on p81 phosphocellulose papers (Whatmann) using ep motion 5070 (Eppendorf), washed in 0.01% phosphoric acid, dried, and then exposed and analyzed using PhophoImager technology (FLA-9000 Starion, Fujifilm). The specific activity of CaPkh2 and PDK1 was estimated using 100μM T308tide.

[4] = target: T2, Serine/threonine-protein kinase PKH2 [1-944]; experiment: Protein Kinase Activity Assay; conditions: pH 7.4; 0 °C
Method: as §2

SMILES	EC50 [1]	EC50 ([2]; room temperature)	IC50 [3]	IC50 [4]	EC50 [2]
O=C(CC(c1ccccc1)C(C(=O)O)C(=O)O)c1ccc(Cl)cc1 (stereo not drawn) [PS182]	26 µM	66 µM	–	–	–
O=C(C[C@@H](c1ccccc1)C(C(=O)O)C(=O)O)c1ccc(C(F)(F)F)cc1	39 µM	60 µM	–	–	–
O=C(O)CSC(CC(=O)c1ccc(Cl)cc1)c1ccccc1Sc1ccc(Cl)cc1 (stereo not drawn) [PS77]	–	–	38 µM	17 µM	44 µM
O=C(O)CSC(CC(=O)c1ccc(Cl)cc1)c1ccccc1 (stereo not drawn)	–	85 µM	–	–	–
